# The source made the active and inactive calls.
# How the values were obtained:
# [1] = molecular target: Prothrombin (Bos taurus, UniProt P00735); assay: thrombin protease inhibitors – biochemical, fluorescence polarization, uHTS hits, dose response (AID 602369); assay type: functional
# [2] = molecular target: 72 kDa type IV collagenase (Homo sapiens, UniProt P08253); assay: Dose Response validation of uHTS RPN11 inhibitor hits using a MMP-2 Fluorescence assay.; assay type: functional
# [3] = molecular target: 26S proteasome non-ATPase regulatory subunit 14 (Homo sapiens, UniProt O00487); assay: inhibition of proteasome subunit RPN11 – biochemical, fluorescence polarization, uHTS hits, confirmation (AID 602368); assay type: functional
# [4] = molecular target: Large T antigen (Simian virus 40, UniProt P03070); assay type: functional, Betapolyomavirus macacae;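 further: Confirmatory-stage PubChem screen for compounds that inhibit SV40 T antigen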
# [5] = molecular target: T1, Coagulation factor XII (Homo sapiens, UniProt P00748); assay type: functional;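 further: activated factor XIIa alpha cleaving a fluorogenic AMC peptide substrate; inhibitor potency from loss of enzyme activity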
# T1 sequence (P00748 whole entry): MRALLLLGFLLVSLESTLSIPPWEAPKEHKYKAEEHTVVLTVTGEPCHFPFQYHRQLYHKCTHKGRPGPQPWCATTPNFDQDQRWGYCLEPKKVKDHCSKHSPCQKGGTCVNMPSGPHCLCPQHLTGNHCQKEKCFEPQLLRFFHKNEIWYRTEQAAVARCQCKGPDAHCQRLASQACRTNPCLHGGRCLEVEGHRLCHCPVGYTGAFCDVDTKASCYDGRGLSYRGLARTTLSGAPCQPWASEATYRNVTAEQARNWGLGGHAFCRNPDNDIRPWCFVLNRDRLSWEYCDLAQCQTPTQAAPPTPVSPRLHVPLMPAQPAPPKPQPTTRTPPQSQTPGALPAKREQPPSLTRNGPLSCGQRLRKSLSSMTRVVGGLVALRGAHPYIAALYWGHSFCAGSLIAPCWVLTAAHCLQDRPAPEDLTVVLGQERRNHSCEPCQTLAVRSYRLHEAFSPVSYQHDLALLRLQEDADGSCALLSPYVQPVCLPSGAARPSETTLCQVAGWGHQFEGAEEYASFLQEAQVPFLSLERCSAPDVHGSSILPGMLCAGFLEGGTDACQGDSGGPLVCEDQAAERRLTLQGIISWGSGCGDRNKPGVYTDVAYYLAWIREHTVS
# [6] = tested on: BJ; assay: BJ-TERT fibroblast viability loss – cell-based, RAS-independent, luminescence, dose response (AID 1933); assay type: functional; conditions: Homo sapiens
# [7] = DRD fibroblast viability loss – cell-based, non-viral oncogenic, luminescence, dose response (AID 1934); assay type: functional; conditions: Homo sapiens
# [8] = Luminescence Cell-Based Dose Confirmation HTS to Identify Inhibitors of Platelet Dense Granule Release. [Related pubchem assays: 1663 (Primary HTS), 1678 (Summary of Project)]; assay type: functional
# [9] = tested on: BJ; assay: BJ-TERT-LT-ST fibroblast viability loss – cell-based, RAS-independent, luminescence, dose response (AID 1935); assay type: functional; conditions: Homo sapiens;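 further: BJ fibroblasts immortalized with TERT plus LT and ST oncogenes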
# [10] = molecular target: T2, Luciferin 4-monooxygenase (Photinus pyralis, UniProt P08659); assay: inhibition of purified Photinus pyralis luciferase – biochemical, luminescence, dose response (AID 1891)
# [11] = tested on: BJ; assay: cells; assay type: functional, cell-based; conditions: Homo sapiens
# [12] = tested on: BJ; assay: growth inhibition of engineered Ras-driven BJ cells – cell-based, alamar blue fluorescence, cherrypicked samples, dose response (AID 2631); assay type: functional; conditions: Homo sapiens;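 further: confirmatory dose-response assay in RAS-dependent BJ fibroblasts engineered with TERT, LT and ST, with cytotoxicity read by fluorescence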
# [13] = molecular target: Heat shock protein HSP 90-alpha (Homo sapiens, UniProt P07900); assay type: functional, organism-based
# [14] = tested on: HT-1080; assay: HT1080 cell viability loss – fluorescence readout (AID 620); assay type: functional, cell-based; conditions: Homo sapiens
# [15] = molecular target: T2, Luciferin 4-monooxygenase; assay: Counter Screen for Luciferase-based Assay Positives. [Related pubchem assays: 620, 618, 411 ]
# [16] = molecular target: T3, Lysosomal acid glucosylceramidase (Homo sapiens, UniProt P04062); assay: Dose response cell-based high throughput screening assay to identify enhancers of beta-glucosidase activity. [Related pubchem assays: 784 ]; assay type: functional
# T3 sequence (P04062 whole entry): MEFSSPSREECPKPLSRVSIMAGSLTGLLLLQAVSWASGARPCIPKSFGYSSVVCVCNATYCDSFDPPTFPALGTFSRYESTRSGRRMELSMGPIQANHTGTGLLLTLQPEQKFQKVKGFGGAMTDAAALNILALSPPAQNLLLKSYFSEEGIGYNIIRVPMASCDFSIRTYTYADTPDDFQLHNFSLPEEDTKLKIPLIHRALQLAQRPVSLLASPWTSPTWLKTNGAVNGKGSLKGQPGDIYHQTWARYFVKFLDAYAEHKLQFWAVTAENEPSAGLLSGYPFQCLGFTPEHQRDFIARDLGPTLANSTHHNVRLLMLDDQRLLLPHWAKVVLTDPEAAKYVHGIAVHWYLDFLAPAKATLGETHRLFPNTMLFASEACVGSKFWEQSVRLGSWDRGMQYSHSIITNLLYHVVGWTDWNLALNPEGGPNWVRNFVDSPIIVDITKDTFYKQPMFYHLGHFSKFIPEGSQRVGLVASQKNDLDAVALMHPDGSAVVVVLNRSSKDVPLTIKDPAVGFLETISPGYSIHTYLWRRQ
# [17] = tested on: INS1; assay: INS-1E survival protection against cytokine death – cell-based, luminescence, retest, dose response (AID 449756); assay type: functional; conditions: Rattus norvegicus;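 further: cell death triggered by IL-1 beta plus TNF-alpha plus IFN-gamma mixture; protective hits raise ATP signal compared with cytokine alone wells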
# [18] = molecular target: Peroxisome proliferator-activated receptor gamma/Nuclear receptor coactivator 2 (Homo sapiens, UniProt P37231); assay: (§1) TR-FRET dose response biochemical High Throughput Screening assay for agonists of the steroid receptor coactivator 2 (SRC-2) recruitment by the peroxisome proliferator-activated receptor gamma (PPAR gamma): non-selective agonists. [Related pubchem assays: 1297, 1032 ]; assay type: functional
# [19] = molecular target: Peroxisome proliferator-activated receptor gamma/Nuclear receptor coactivator 3 (Homo sapiens, UniProt P37231); assay: as §1, with “3 (SRC-3)” for “2 (SRC-2)”, “1301 (Confirmation screen.), 1048 (Primary screen.)]” for “1297, 1032 ]”; assay type: functional
# [20] = molecular target: Peroxisome proliferator-activated receptor gamma/Nuclear receptor coactivator 1 (Homo sapiens, UniProt P37231); assay: as §1, with “1 (SRC-1)” for “2 (SRC-2)”, “assays (depositor defined):AID1300, AID1808, AID504735, AID631]” for “assays: 1297, 1032 ]”; assay type: protein assay
# [21] = tested on: Streptococcus sp. 'group A'; assay: Streptococcus pyogenes SK(-)GAS viability under kanamycin – luminescence, BacTiterGlo, confirmation, counter-screen for streptokinase expression inhibitor project, dose response (AID 1900); assay type: functional, organism-based
# [22] = Luminescence Cell-Based Dose Retest to Confirm Inhibitors of Cancer Stem Cells. [Related pubchem assays (depositor defined):AID2717, AID2721]; assay type: functional; conditions: Homo sapiens
# [23] = tested on: Streptococcus; assay: GAS UMAA2166 growth inhibition – luminescence, BacTiterGlo, counter-screen for streptokinase expression inhibitor project, dose response (AID 1915); assay type: functional, organism-based;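 further: potency for reduction of bacterial viability or growth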
# [24] = molecular target: T4, Short transient receptor potential channel 4 (Mus musculus, UniProt Q9QUQ5); assay: block of DAMGO-driven TRPC4 calcium entry – cell-based, HEK293 TRPC4/mu-opioid, Fluo-4 calcium, dose response (AID 434942); assay type: functional;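 further: potency of inhibitors blocking the TRPC4 calcium response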
# T4 sequence (Q9QUQ5 whole entry): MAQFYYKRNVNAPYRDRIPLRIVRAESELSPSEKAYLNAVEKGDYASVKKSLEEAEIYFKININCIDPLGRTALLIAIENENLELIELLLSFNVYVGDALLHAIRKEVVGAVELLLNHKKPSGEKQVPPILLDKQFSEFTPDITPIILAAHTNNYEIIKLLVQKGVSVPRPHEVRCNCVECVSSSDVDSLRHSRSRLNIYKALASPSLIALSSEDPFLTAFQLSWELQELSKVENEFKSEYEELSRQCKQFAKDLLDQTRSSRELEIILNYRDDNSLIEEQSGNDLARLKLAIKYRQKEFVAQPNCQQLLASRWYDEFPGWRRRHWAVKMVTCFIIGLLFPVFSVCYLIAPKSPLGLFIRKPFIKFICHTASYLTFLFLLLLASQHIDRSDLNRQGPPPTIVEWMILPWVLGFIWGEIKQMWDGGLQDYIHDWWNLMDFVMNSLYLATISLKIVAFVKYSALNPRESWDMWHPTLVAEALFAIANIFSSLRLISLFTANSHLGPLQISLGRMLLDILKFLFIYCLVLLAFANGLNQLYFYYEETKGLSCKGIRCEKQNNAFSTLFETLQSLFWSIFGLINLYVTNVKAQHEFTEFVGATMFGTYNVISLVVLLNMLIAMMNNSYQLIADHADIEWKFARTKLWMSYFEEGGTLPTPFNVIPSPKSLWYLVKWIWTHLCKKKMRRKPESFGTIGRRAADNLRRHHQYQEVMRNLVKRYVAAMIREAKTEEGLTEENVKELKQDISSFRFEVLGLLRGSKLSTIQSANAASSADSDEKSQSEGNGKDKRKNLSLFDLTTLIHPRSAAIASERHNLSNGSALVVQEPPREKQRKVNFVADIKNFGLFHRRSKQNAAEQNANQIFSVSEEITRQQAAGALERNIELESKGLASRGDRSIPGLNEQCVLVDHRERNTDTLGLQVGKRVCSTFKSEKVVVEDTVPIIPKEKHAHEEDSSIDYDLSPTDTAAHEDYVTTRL
# [25] = molecular target: T5, Streptokinase A (Streptococcus pyogenes serotype M1, UniProt P10520); assay: viability-normalized secreted streptokinase activity reduction – plasminogen activation absorbance, OD405, dose response (AID 1914); assay type: functional, Streptococcus pyogenes M1 GAS;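 further: secreted streptokinase activity via plasminogen activation per viability signal from cell pellet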
# T5 sequence (P10520 whole entry): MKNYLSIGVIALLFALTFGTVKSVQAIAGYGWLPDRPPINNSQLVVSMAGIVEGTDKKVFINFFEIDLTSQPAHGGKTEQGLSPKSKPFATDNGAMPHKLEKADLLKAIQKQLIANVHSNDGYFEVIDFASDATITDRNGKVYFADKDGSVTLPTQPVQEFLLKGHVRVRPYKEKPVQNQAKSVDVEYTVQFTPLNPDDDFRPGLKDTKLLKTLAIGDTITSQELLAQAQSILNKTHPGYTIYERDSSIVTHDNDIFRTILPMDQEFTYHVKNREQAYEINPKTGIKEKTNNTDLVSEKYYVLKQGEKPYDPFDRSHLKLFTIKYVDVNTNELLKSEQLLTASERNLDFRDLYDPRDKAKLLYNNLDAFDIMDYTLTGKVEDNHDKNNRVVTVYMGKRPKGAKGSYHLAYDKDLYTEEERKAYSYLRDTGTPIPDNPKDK
# 26S proteasome non-ATPase regulatory subunit 14, sequence (O00487 whole entry): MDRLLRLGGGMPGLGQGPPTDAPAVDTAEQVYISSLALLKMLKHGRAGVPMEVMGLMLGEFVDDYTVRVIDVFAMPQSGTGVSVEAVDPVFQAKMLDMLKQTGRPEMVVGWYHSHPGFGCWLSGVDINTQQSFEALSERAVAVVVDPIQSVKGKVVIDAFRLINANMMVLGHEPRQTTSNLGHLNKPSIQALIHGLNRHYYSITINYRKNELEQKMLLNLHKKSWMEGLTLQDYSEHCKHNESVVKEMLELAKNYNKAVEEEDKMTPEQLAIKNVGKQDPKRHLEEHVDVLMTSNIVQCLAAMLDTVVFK
# T2 sequence (P08659 whole entry): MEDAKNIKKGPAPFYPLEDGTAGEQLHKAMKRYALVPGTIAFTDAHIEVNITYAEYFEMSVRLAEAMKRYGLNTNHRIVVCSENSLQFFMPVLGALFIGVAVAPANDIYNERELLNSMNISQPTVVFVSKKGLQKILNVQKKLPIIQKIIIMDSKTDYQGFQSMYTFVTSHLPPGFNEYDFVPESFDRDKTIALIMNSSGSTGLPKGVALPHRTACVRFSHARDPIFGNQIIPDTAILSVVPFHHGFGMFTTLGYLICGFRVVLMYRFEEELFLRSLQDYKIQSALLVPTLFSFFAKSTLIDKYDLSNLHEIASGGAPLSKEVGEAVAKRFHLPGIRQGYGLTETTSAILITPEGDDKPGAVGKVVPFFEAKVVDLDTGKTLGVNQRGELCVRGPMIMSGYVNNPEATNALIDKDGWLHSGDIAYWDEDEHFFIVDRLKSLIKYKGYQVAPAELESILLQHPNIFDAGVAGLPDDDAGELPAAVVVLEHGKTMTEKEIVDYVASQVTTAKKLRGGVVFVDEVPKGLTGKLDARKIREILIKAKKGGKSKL
# 72 kDa type IV collagenase, sequence (P08253 whole entry): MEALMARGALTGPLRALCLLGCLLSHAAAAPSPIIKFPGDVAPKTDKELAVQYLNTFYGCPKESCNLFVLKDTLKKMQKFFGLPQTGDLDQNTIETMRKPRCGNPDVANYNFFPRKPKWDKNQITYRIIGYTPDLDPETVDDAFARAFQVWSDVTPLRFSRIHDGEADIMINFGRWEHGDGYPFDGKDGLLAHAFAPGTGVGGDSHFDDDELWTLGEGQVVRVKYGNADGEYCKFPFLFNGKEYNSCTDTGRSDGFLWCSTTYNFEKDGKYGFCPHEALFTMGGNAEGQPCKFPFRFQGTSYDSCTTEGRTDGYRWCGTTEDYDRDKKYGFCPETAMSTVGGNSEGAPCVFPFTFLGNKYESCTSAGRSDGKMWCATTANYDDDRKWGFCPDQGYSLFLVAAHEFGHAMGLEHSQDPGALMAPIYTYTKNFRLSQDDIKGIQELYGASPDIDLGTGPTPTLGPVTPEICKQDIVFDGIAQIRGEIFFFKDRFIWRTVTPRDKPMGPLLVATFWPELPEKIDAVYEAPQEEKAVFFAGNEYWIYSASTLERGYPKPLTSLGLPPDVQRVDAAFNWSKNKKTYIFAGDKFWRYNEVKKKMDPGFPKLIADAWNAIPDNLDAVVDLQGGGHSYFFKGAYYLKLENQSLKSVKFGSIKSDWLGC
# Peroxisome proliferator-activated receptor gamma/Nuclear receptor coactivator 2, sequence (P37231 whole entry): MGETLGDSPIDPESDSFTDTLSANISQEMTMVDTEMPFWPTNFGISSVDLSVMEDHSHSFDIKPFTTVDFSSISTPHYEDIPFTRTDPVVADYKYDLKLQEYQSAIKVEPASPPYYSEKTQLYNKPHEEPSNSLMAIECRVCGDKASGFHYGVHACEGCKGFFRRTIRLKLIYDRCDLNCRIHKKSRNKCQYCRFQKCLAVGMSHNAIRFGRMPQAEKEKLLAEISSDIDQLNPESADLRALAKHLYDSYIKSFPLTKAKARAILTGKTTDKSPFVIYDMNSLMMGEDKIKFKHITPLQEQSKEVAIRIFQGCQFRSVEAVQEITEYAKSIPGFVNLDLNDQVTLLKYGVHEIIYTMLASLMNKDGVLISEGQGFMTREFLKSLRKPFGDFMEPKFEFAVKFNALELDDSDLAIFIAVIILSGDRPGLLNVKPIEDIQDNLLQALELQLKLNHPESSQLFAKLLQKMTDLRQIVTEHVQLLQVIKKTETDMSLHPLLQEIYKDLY
# Peroxisome proliferator-activated receptor gamma/Nuclear receptor coactivator 2, sequence (Q15596 whole entry, further chain): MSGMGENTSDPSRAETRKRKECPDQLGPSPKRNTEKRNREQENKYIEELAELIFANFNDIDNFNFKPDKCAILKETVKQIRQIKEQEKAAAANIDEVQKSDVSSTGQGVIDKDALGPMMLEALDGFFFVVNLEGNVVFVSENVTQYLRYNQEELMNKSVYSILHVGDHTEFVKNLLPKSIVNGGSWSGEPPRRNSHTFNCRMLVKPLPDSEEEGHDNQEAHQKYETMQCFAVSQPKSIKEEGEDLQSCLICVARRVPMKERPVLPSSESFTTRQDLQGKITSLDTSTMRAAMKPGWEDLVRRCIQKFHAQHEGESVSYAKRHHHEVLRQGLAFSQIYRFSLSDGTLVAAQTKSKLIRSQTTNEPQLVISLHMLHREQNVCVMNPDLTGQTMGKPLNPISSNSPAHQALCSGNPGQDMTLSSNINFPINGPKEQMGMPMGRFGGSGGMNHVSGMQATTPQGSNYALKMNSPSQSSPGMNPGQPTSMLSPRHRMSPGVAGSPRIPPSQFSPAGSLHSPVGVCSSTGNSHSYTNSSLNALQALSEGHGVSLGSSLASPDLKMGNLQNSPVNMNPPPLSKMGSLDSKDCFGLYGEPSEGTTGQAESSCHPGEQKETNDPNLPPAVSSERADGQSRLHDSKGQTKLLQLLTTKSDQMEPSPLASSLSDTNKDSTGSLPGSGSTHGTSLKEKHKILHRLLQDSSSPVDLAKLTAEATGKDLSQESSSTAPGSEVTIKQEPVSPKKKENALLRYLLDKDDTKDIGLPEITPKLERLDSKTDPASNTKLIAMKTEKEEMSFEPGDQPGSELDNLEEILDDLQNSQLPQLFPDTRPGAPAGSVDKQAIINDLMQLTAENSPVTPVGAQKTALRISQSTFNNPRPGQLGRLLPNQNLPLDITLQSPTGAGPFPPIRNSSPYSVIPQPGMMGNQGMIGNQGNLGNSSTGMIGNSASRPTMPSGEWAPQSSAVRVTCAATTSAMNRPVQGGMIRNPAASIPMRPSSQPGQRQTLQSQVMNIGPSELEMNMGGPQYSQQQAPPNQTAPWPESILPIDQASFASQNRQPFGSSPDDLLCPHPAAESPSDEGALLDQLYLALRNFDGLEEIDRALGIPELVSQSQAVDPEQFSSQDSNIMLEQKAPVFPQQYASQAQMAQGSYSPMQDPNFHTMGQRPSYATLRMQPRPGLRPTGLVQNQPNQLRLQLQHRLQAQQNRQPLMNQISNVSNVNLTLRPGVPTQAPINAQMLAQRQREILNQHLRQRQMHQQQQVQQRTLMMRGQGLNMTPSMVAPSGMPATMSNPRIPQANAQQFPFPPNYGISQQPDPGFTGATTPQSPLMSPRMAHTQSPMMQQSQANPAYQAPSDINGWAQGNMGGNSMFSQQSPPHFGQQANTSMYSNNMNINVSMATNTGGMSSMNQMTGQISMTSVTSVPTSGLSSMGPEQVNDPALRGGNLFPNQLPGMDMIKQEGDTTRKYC
# Large T antigen, sequence (P03070 whole entry): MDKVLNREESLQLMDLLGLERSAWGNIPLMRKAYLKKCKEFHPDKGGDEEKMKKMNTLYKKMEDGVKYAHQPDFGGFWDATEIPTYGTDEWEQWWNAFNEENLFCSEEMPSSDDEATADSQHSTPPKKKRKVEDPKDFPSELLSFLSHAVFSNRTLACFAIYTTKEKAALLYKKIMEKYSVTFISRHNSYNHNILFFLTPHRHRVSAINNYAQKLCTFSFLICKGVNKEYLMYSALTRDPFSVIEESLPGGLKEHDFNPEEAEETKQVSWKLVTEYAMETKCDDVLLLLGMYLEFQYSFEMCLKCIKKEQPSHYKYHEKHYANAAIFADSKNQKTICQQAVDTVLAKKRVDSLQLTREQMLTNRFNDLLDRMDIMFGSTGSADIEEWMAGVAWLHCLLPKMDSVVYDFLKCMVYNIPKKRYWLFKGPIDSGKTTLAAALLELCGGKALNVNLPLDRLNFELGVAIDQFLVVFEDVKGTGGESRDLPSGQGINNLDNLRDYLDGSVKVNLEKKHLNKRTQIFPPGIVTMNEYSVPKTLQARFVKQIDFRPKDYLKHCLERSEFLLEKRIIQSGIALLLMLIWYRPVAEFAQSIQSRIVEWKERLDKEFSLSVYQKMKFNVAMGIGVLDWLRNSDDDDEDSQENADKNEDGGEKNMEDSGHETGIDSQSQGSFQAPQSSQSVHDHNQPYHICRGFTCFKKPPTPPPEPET
structure (smiles),measurement,setting,value
COc1ccc(-n2c(/C=C/c3ccc(O)c(O)c3)nc3ccccc3c2=O)cc1,IC50,[1],6.49 µM (active)
same,IC50,[2],> 100 µM (inactive)
same,IC50,[3],9.05 µM (active)
same,IC50,[4],55.9 µM (active)
COc1ccc(N(CC(=O)Nc2ccccc2SC)S(C)(=O)=O)cc1OC,IC50,[5],> 50 µM (inactive)
CCOc1ccc2nc(NC(=O)c3ccoc3C)sc2c1,EC50,[6],2.43 µM (active)
same,EC50,[7],1.97 µM (active)
same,EC50,[8],0.231 µM (active)
same,EC50,[9],6.32 µM (active)
same,EC50,[10],< 0.088 µM (active)
same,EC50,[11],1.79 µM (active)
same,EC50,[12],> 133 µM (inactive)
same,AC50,[13],2.02 µM (active)
same,EC50,[14],> 50 µM (not active)
same,EC50,[15],6.49 µM (active)
CCn1c(SCC(=O)N2CCN(c3ccccc3)CC2)nnc1-c1cc2cc(Cl)ccc2o1,EC50,[16],> 50 µM (not active)
same,IC50,[5],> 50 µM (inactive)
O=C(NCCCn1ccnc1)c1ccc(N2CCCCCC2)c([N+](=O)[O-])c1,EC50,[6],> 150 µM (not active)
same,EC50,[7],25.6 µM (active)
same,AC50,[17],6.67 µM (active)
same,EC50,[9],11.4 µM (active)
same,EC50,[11],7.97 µM (active)
same,EC50,[12],3.55 µM (active)
O=C(Nc1nc2c(s1)CN(Cc1ccccc1)CC2)c1cccc(S(=O)(=O)N2CCc3ccccc32)c1,EC50,[18],14.8 µM (not active)
same,EC50,[19],28 µM (not active)
same,EC50,[20],10.8 µM (inactive)
c1ccc(-c2nnsc2-c2nc3ccccc3[nH]2)cc1,EC50,[18],10.3 µM (not active)
same,EC50,[19],83.6 µM (not active)
same,EC50,[20],10.8 µM (inactive)
Cc1cc(C)c(S(=O)(=O)N2C[C@H]3CON(C)[C@H]3C[C@H]2c2ccc(N3CCCCC3)cc2)c(C)c1,IC50,[1],29.2 µM (active)
same,IC50,[2],> 100 µM (inactive)
same,IC50,[3],23.2 µM (active)
O=C(O)c1ccc(CSc2nc(-c3ccc(Cl)cc3)cc(C(F)(F)F)n2)cc1,EC50,[21],4.41 µM (active)
same,AC50,[22],5.76 µM (active)
same,EC50,[23],11.7 µM (active)
same,EC50,[24],5.96 µM (active)
same,EC50,[25],> 150 µM (not active)

# From ChEMBL document CHEMBL1201862, “PubChem BioAssay data set” (2004)
